# In patent US7473682B2, “Angiogenic peptides and uses thereof” (Ramot at Tel Aviv University Ltd., priority 2003, dated 2009):
# What was measured:
# [1] = test system: ears of nude mice and Balb/C mice; assay: In vivo angiogenesis in a mouse-ear model; details: for Number of blood vessels: 5 days after inoculation
# Procedure: In Wivo angiogenesis in a mouse-ear model—Ear angiogenesis studies were a modification of an approach described previously (Pettersson, 2000). […] Contralateral ears were injected only with PBS. […] Two days after peptide inoculation, angiogenic effect of peptides could be observed.
# Histological sections—Histological sections of the mouse-ears injected with the angiogenic peptides were performed by fixing tissues in 4% buffered formalin. Sections were embedded in paraffin blocks sectioned in 4 μm thick layers and stained with hematoxolin-eosin.
# [2] = test system: mouse ischemic hind limb; assay: Mouse ischemic hind limb model, physiological observations (ladder climbing); format: in vivo; parameters: key: 1 = walk and climb ... 4 = walk with difficulty, cannot climb; details: mean score of 10 mice, 10 μg
# Procedure: (§1) Mouse ischemic hind limb model—Ischemia was created in the mouse left hind limb by ligation of the femoral artery. The right hind limb served as control. A day after the operation each of the peptides was injected into one site close to the ligation and one site distal to the ligation. Each mouse was treated with each of the peptides in a total amount of 10 μg.
# Physiological observations—Ischemic mice were evaluated for their ability to climb a ladder on day 1, 4, 7, and 10-post operation. The scoring system was as follows: 1—walk and climb; 2—walk and climb with some difficulty, 3—walk and cannot climb the ladder; 4—walk with difficulties and cannot climb the ladder.
# [3] = test system: mouse ischemic hind limb; assay: Mouse ischemic hind limb model, blood perfusion (Laser Doppler Imager); format: in vivo; details: 14 and 19 days following peptide injection, 10 μg
# Procedure: as §1
# Blood perfusion in ischemic mice—The percent of blood perfusion was measured using a Laser Doppler Imager (PeriMed, Sweden) at 14 and 19 days after peptides injections. The average percent perfusion of each limb was computed and expressed as the ischemic (left)/control (right) blood perfusion ratio.
substance,measurement,setting,value
"FGF: positive control, the angiogenic molecule FGF [reference compound]",Number of blood vessels,[1]; 3 ng/ear,11
same,Peptide/PBS = ratio between the No. of blood vessels in the peptide-injected ear and in the PBS-injected ear,"[1]; mouse ears, contralateral ear PBS",2.08
same,Physiological score (ability to climb a ladder) Day 1,"[2]; 1 = walk and climb ... 4 = walk with difficulties and cannot climb, day 1 post operation",2.57
same,Physiological score (ability to climb a ladder) Day 4,"[2]; scale 1-4, day 4 post operation",2
same,Physiological score (ability to climb a ladder) Day 7,"[2]; scale 1-4, day 7 post operation",1
same,Physiological score (ability to climb a ladder) Day 10,"[2]; scale 1-4, day 10 post operation",1
same,"The blood perfusion ratio (in percentages) of the ischemic vs. control limbs, Mean",[3],93.438 percentages
VEGF [reference compound],Number of blood vessels,[1]; 10 ng/ear,17
same,Number of blood vessels in the ears of injected mice (photographs),"[1]; VEGF, 100 ng/mouse ear (FIG. 19a)",increased number of blood vessels
